Where two headings read alike, the source gives them in different places.
Key:
A549 [1] = assay: Drug combinations with L-alanosine, MTT assay; type: cell-based; conditions: combination with L-alanosine, NSCLC, three days
Experimental: (§1) In each experiment, tumor cells from lung, pancreatic, or mesothelial tumor cell lines were plated in 96-well plates at 5,000 cells/well in 100 μL media. The media for all assays except the Alimta® studies was RPMI-1640 and 10% horse serum. For the Alimta® studies, the media used was RPMI 1640 with dialyzed fetal bovine serum. All media contained 100 Units/mL penicillin and 100 μg/mL streptomycin. The cells were allowed to adhere for 18 hours at 37° C./5.0% CO2. […] After drug addition, cells were incubated three days at 37° C., 5.0% CO2. Cell viability was assayed using a standard MTT assay, as follows: 10 μl of 12 mM 3-[4,5-dimethylthiazol-2-yl]-2,5-diphenyltetrazolium bromide (MTT) (Sigma) were added to each well. The cells were incubated at 37° C., 5% CO2 for 4 to 6 hours. 100 μl of 20% SDS, 0.015 M HCl were added to each well and the cells were incubated overnight. Cytotoxicity was measured by reading absorbance at 595 nm.
(§2) Data analysis was performed using GraphPad Prism version 3.0 (GraphPad Software, San Diego, Calif. USA).

NCI-H2322M = assay: Drug combinations with L-alanosine, MTT assay; type: cell-based; conditions: combination with L-alanosine, ratio drug:alanosine 1:1000; NSCLC; three days
Experimental: as §1, §2

NCI-H2452 [2] = assay: Drug combinations with L-alanosine, MTT assay; type: cell-based; conditions: combination with L-alanosine, mesothelioma, three days
Experimental: as §1, §2

NCI-H292 [3] = assay: Drug combinations with L-alanosine, MTT assay; type: cell-based; conditions: combination with L-alanosine, ratio drug:alanosine 1:1000; NSCLC; three days
Experimental: as §1, §2

PanC1 = assay: Drug combinations with L-alanosine, MTT assay; type: cell-based; conditions: combination with L-alanosine, pancreatic, three days
Experimental: as §1, §2

A549 [4] = assay: Docetaxel, 5-FU, SDX-102 alone or combined, MTT/MTS cytotoxicity (Example 4); type: cell-based; conditions: Homo sapiens; A549, NSCLC, single agent, MTT 72 hours
NCI-H292 [5] = assay: as above; type: cell-based; conditions: Homo sapiens; NCI-H292, NSCLC, single agent, MTT 72 hours
NCI-H322M = assay: as above; type: cell-based; conditions: Homo sapiens, NSCLC, single agent, MTT 72 hours
PANC-1 = assay: as above; type: cell-based; conditions: Homo sapiens; PANC-1, Pancreatic, single agent, MTT 72 hours
BX-PC3 [6] = assay: as above; type: cell-based; conditions: Homo sapiens, BXPC-3; BX-PC3, Pancreatic, single agent, MTT 72 hours
NCI-H2452 [7] = assay: as above; type: cell-based; conditions: Homo sapiens; NCI-H2452, Mesothelioma, single agent, MTT 72 hours
H-Meso-1 = assay: Mesothelioma xenograft model (H-Meso-1) in SCID mice; type: in vivo; conditions: thirty-one days following treatment; docetaxel 10 mg/kg intraperitoneally daily Mon-Fri, SDX-102 50 mg/kg osmotic pump; start 100 mm^3; control 1272
BX-PC3 [8] = assay: Drug combinations with L-alanosine, MTT assay; type: cell-based; conditions: combination with L-alanosine, three days
Experimental: as §1, §2

A-427 [9] = assay: Intracellular ATP levels (Cell-Titer Glow); type: cell-based
Experimental: (§3) MTAP status was determined using immunoblot analyses and correlated with the ability of an MTA analog to rescue ATP levels in cell lines treated with SDX-102. ATP levels were measured using Cell-Titer Glow™ (Promega) after a 3 day treatment with titrated concentrations of either SDX-102 or pemetrexed.
(§4) ATP values measured using Cell-Titer Glow™ (Promega) after 3 days exposure to the MTA analog. Solid lines in FIG. 8 represent the effect of titrations of SDX-102 from 0.05 μM-20 μM (FIG. 8A) or pemetrexed from 0.01 μM-5 μM (FIG. 8B) on cellular ATP levels. The dotted lines represent the effect of a single concentration of SDX-102 (10 μM) or pemetrexed (2.5 μM) with a titration of an MTA analog from 0.1 μM-50 μM.

HS-766T [10] = assay: Intracellular ATP levels (Cell-Titer Glow); type: cell-based
Experimental: as §3, §4

NCI-H226 [11] = assay: Intracellular ATP levels (Cell-Titer Glow); type: cell-based
Experimental: as §3, §4

A-594 = assay: Intracellular ATP levels (Cell-Titer Glow); type: cell-based; conditions: 72 h; A-594, NSCLC, MTAP Negative; 3 day treatment
Experimental: as §3

BxPC3 [12] = assay: Intracellular ATP levels (Cell-Titer Glow); type: cell-based; conditions: Homo sapiens, BXPC-3, 72 h; BxPC3, Pancreatic, MTAP Negative; 3 day treatment
Experimental: as §3

NCI-H2452 [13] = assay: Intracellular ATP levels (Cell-Titer Glow); type: cell-based; conditions: Homo sapiens
Experimental: as §3

BxPC3 [14] = assay: Cell viability MTT assay (Example 3); type: cell-based; conditions: Homo sapiens, BXPC-3, 72 h; BxPC3, Pancreatic, MTAP Negative; 3 days
HS-766T [15] = assay: Cell viability MTT assay (Example 3); type: cell-based
[16] = Cell viability MTT assay (Example 3); type: cell-based; conditions: 72 h; A-594, NSCLC, MTAP Negative; 3 days
A-427 [17] = assay: Cell viability MTT assay (Example 3); type: cell-based; conditions: Homo sapiens, 72 h; A-427, NSCLC, MTAP Positive; 3 days
NCI-H2452 [18] = assay: Cell viability MTT assay (Example 3); type: cell-based; conditions: Homo sapiens, 72 h; NCI-H2452, Mesothelioma, MTAP Negative; 3 days
NCI-H226 [19] = assay: Cell viability MTT assay (Example 3); type: cell-based; conditions: Homo sapiens, 72 h; NCI-H226, Mesothelioma, MTAP Positive; 3 days
NCI-H2452 [20] = test system: NCI-H2452
A549 NSCLC xenografts = assay: MTAP-negative A549 NSCLC xenografts in SCID mice; type: in vivo
[21] = ratio drug:alanosine 5:1, pancreatic
[22] = ratio drug:alanosine 1:100, pancreas
[23] = ratio drug:alanosine 1:4, pancreas

With `CC(=O)O[C@@]12CO[C@@H]1C[C@H](O)[C@@]1(C)C(=O)[C@H](O)C3=C(C)[C@@H](OC(=O)[C@H](O)[C@@H](NC(=O)OC(C)(C)C)c4ccccc4)C[C@@](O)([C@@H](OC(=O)c4ccccc4)[C@H]21)C3(C)C` [docetaxel] the “EC75 CI value” (A549 [1]; ratio drug:alanosine 1:100) was 0.8, the “EC75 Effect” value (A549 [1]; ratio drug:alanosine 1:100) was “moderate” and the “EC90 Effect” value (A549 [1]; ratio drug:alanosine 1:100) was “moderate”. For the same compound, the “EC75 CI value” (NCI-H2322M) was 0.9, the “EC90 Effect” value (NCI-H2322M) was “synergism” and the “EC75 CI value” (NCI-H2452 [2]; ratio drug:alanosine 1:1000) was 0.8. For the same compound, the “EC75 Effect” value (NCI-H2452 [2]; ratio drug:alanosine 1:1000) was “moderate”, the “EC90 Effect” value (NCI-H2452 [2]; ratio drug:alanosine 1:1000) was “synergism” and the “EC75 CI value” (NCI-H292 [3]) was 1.1. The “EC75 Effect” value (NCI-H292 [3]) was “additive”, the “EC90 Effect” value (NCI-H292 [3]) was “additive” and the “EC75 CI value” (PanC1; ratio drug:alanosine 1:1000) was 0.6. For the same compound, the “EC75 Effect” value (PanC1; ratio drug:alanosine 1:1000) was “synergism”, the “EC90 Effect” value (PanC1; ratio drug:alanosine 1:1000) was “synergism” and the IC50 (A549 [4]) was 5000 ± 4000 nM. For the same compound, the IC50 (NCI-H292 [5]) was 200 ± 50 nM, the IC50 (NCI-H322M) was 6000 ± 2000 nM and the IC50 (PANC-1) was 30000 ± 6000 nM. For the same compound, the IC50 (BX-PC3 [6]) was 1200 ± 800 nM, the IC50 (NCI-H2452 [7]) was 3000 ± 2000 nM and the mean tumor volume (H-Meso-1) was 655 mm^3.

In the case of `O=c1[nH]cc(F)c(=O)[nH]1` [5-FU, 5-fluorouracil], the “EC75 CI value” (BX-PC3 [8]; [21]) is reported as 0.8, the “EC75 Effect” value (BX-PC3 [8]; [21]) is reported as “moderate” and the “EC90 Effect” value (BX-PC3 [8]; [21]) is reported as “moderate”. The “EC75 CI value” (NCI-H2452 [2]; ratio drug:alanosine 1:1) was 0.5, the “EC75 Effect” value (NCI-H2452 [2]; ratio drug:alanosine 1:1) was “synergism” and the “EC90 Effect” value (NCI-H2452 [2]; ratio drug:alanosine 1:1) was “synergism”. For the same compound, the “EC75 CI value” (PanC1; ratio drug:alanosine 1:1) was 0.6, the “EC75 Effect” value (PanC1; ratio drug:alanosine 1:1) was “synergism” and the “EC90 Effect” value (PanC1; ratio drug:alanosine 1:1) was “synergism”. For the same compound, the IC50 (A549 [4]) was 1000 ± 600 nM, the IC50 (NCI-H292 [5]) was 3000 ± 2000 nM and the IC50 (NCI-H322M) was 6000 ± 5000 nM. It also gave an IC50 (PANC-1) of 14000 ± 4000 nM, an IC50 (BX-PC3 [6]) of 3000 ± 2000 nM and an IC50 (NCI-H2452 [7]) of 5000 ± 2000 nM.

With `Nc1nc2[nH]cc(CCc3ccc(C(=O)N[C@@H](CCC(=O)O)C(=O)O)cc3)c2c(=O)[nH]1` [pemetrexed] the “EC75 CI value” (A549 [1]; ratio drug:alanosine 1:10) was 0.9, the “EC75 Effect” value (A549 [1]; ratio drug:alanosine 1:10) was “slight” and the “EC90 Effect” value (A549 [1]; ratio drug:alanosine 1:10) was “Slight”. The “EC75 CI value” (NCI-H2452 [2]; ratio drug:alanosine 1:1) was 0.3, the “EC75 Effect” value (NCI-H2452 [2]; ratio drug:alanosine 1:1) was “strong” and the “EC90 Effect” value (NCI-H2452 [2]; ratio drug:alanosine 1:1) was “strong”. For the same compound, the “ATP levels restored by addition of an MTAP substrate, of level in control cells” value (“ATP levels restored by addition” for short) (A-427 [9]; A-427 (MTAP-positive) treated with pemetrexed) was “more than 85%”, the IC50 (A-427 [9]; Homo sapiens, 72 h, A-427, NSCLC, MTAP Positive, 3 day treatment) was 5000 nM and the “ATP levels restored by addition” value (HS-766T [10]; HS-766T (MTAP-positive) treated with pemetrexed) was “more than 85%”. For the same compound, the IC50 (HS-766T [10]; Hs766T, 72 h, HS-766T, Pancreatic, MTAP Positive, 3 day treatment) was 800 nM, the IC50 (NCI-H226 [11]; Homo sapiens, 72 h, NCI-H226, Mesothelioma, MTAP Positive, 3 day treatment) was 1000 nM and the “ATP levels restored by addition” value (NCI-H226 [11]; NCI-H226 (MTAP-positive) treated with pemetrexed) was “more than 85%”. For the same compound, the IC50 (A-594) was > 20000 nM, the IC50 (BxPC3 [12]) was 5000 nM and the IC50 (NCI-H2452 [13]; 72 h, NCI-H2452, Mesothelioma, MTAP Negative, 3 day treatment, read-out: ATP IC50) was 100 nM. For the same compound, the IC50 (NCI-H2452 [13]; NCI-H2452, 72 hours incubation, read-out: concentration causing 50% reduction of intracellular ATP) was 80 nM, the IC50 (BxPC3 [14]) was 50 nM and the IC50 (HS-766T [15]; Hs766T, 72 h, Pancreatic, MTAP Positive, 3 days) was > 20000 nM. The “rescue by MTAP substrate from loss of viability” value (HS-766T [15]; MTT assay) was “fully rescue”, the IC50 [16] was 500 nM and the IC50 (A-427 [17]) was 3000 nM. It also gave an IC50 (NCI-H2452 [18]) of 50 nM, an IC50 (NCI-H226 [19]) of 1000 nM and an IC75 (NCI-H2452 [20]; NCI-H2452, incubation with 200 nM L-alanosine) of 15 nM. The IC75 (NCI-H2452 [20]; NCI-H2452, pemetrexed alone) was 200 nM.

With `CCC1=C[C@@H]2CN(C1)Cc1c([nH]c3ccccc13)[C@@](C(=O)OC)(c1cc3c(cc1OC)N(C)[C@H]1[C@@](O)(C(=O)OC)[C@H](OC(C)=O)[C@]4(CC)C=CCN5CC[C@]31[C@@H]54)C2` [vinorelbine] the “EC75 CI value” (BX-PC3 [8]; [22]) was 0.6, the “EC75 Effect” value (BX-PC3 [8]; [22]) was “synergism” and the “EC90 Effect” value (BX-PC3 [8]; [22]) was “synergism”.

In the case of `COc1cc2ncnc(Nc3ccc(F)c(Cl)c3)c2cc1OCCCN1CCOCC1` [Iressa ®, gefitinib], the “EC75 CI value” (BX-PC3 [8]; [23]) is reported as 0.29, the “EC75 Effect” value (BX-PC3 [8]; [23]) is reported as “strong” and the “EC90 Effect” value (BX-PC3 [8]; [23]) is reported as “strong”.

With `Nc1ccn([C@@H]2O[C@H](CO)[C@@H](O)C2(F)F)c(=O)n1` [gemcitabine] the “EC75 CI value” (NCI-H2452 [2]; ratio drug:alanosine 1:100) was 0.6, the “EC75 Effect” value (NCI-H2452 [2]; ratio drug:alanosine 1:100) was “synergism” and the “EC90 Effect” value (NCI-H2452 [2]; ratio drug:alanosine 1:100) was “synergism”.

With `CC(=O)O[C@H]1C(=O)[C@@]2(C)[C@H]([C@H](OC(=O)c3ccccc3)[C@]3(O)C[C@H](OC(=O)[C@H](O)[C@@H](NC(=O)c4ccccc4)c4ccccc4)C(C)=C1C3(C)C)[C@]1(OC(C)=O)CO[C@@H]1C[C@@H]2O` [paclitaxel] the tumor growth inhibition (A549 NSCLC xenografts; 60 days monitoring, doses as administered) was “inhibited tumor growth”, the “time for the tumors to increase 10-fold in size” value (A549 NSCLC xenografts; L-alanosine 40 then 20 mg/kg/day, Taxol 16 mg/kg/day i.p., two cycles (day 0, day 41), control 32.2) was 43.2 days and the “percent mean change in tumor volume” value (A549 NSCLC xenografts; day 46) was 1449±236%.

— US20060041013A1, “Alanosine formulations and methods of use” (priority 2004, published 2006)
